Assay results reported in US20250042866A1, “CRYSTAL FORM OF BLARCAMESINE HYDROCHLORIDE, METHOD FOR PREPARING SAME, AND USE THEROF” (CRYSTAL PHARMACEUTICAL (SUZHOU) CO., LTD., priority 2022, published 2025).
“Also recorded” adds a separate entry of the source.

How the values were obtained:
Format in all cases: physicochemical
[1] = Compressibility: tensile strength of compressed tablets; details: 80 mg, Φ6 mm round tooling, 3 kN, after 24 hours at room temperature; T=2H/πDL
Method: The samples were pressed by the ENERPAC single punch manual tablet press. […] The elastic recovery was completed after storage at room temperature for 24 hours, then the diameter (D) and thickness (L) of the tablet was measured by a caliper, and the hardness (H) was tested with a tablet hardness tester. Tensile strength of the powder was calculated with the following formula: T=2H/πDL. Under a certain force, the greater the tensile strength, the better the compressibility.

[2] = Solubility in organic solvents, step-wise solvent addition; details: organic solvent or mixture, thermodynamic from solid; Ethyl acetate; room temperature; as mass of Compound I
Method: (§1) The weight of solid (m), the undissolved volume (v1) and the dissolved volume (v2) were recorded respectively.
as §1

[3] = Flowability (compressibility index / Carr index); details: criteria of ICH Q4B Annex 13, by compressibility index
Method: The bulk density ρ0 was calculated with the formula “bulk density ρ0=powder mass/volume before tapped”. […] The tapped density pf was calculated with the formula “tapped density ρf=powder mass/volume after tapped”. The degree of compression (c), also known as Compressibility index or Carr index, was calculated based on the measured bulk density and tap density of the sample with the formula c=(ρf-ρ0)/ρf*100%.
The bulk density ρ0 was calculated with the formula “bulk density ρ0=powder mass/volume before tapped”. […] The tapped density pf was calculated with the formula “tapped density ρf=powder mass/volume after tapped”. The degree of compression (c), also known as Compressibility index or Carr index, was calculated based on the measured bulk density and tap density of the sample with the formula c=(pf-ρ0)/ρf*100%.

[4] = Hygroscopicity by dynamic vapor sorption (DVS); details: 25° C., cycle 0% RH-95% RH-0% RH, about 10 mg
Method: DVS data in the present disclosure were measured via an SMS (Surface Measurement Systems Ltd.) intrinsic DVS instrument. The instrument control software is DVS-Intrinsic control software. Typical Parameters for DVS test are as follows: • Temperature: 25° C. • Gas and flow rate: N2, 200 mL/min • RH range: 0% RH to 95% RH
The mass change at each relative humidity were recorded in a cycle of 0% RH-95% RH-0% RH.

[5] = Crystalline form stability in the formulation process; details: dry granulation simulation 5 ± 1 kN, blending, capsule filling; XRPD
[6] = Storage stability of drug substance (HPLC purity and XRPD form); details: for chemical purity during storage: 40° C./75% RH and 60° C./75% RH
Method: Chemical purity and crystalline form were tested by HPLC and XRPD respectively.
Open: the sample was placed into a glass vial, and the vial was covered by aluminum foil with holes.
Sealed with desiccants: the sample was placed into a glass vial, and the vial was covered by aluminum foil with holes, then the vial was sealed into an aluminum foil bag with 1 g of silica gel desiccant.
An appropriate amount of Form CSIV of the present disclosure were stored under different conditions of 25° C./60% RH, 40° C./75% RH and 60° C./75% RH. Chemical purity and crystalline form were test by HPLC and XRPD respectively. […] Form CSIV is stable after storage under 40° C./75% RH condition for at least 6 months, indicating Form CSIV has good stability under accelerated condition. Form CSIV is stable after storage under 60° C./75% RH condition for at least 2 weeks, indicating Form CSIV has good stability under stress condition.

[7] = Light stability (HPLC purity and XRPD form); details: for Initial purity: before light exposure; for Purity / Solid form: light 8 k Lux, UV 1.5 w/m^2, 2 weeks; for Purity: HPLC; for Solid form: XRPD
Excerpt: An appropriate amount of Form CSIV of the present disclosure was placed in a light stability chamber with the following setting values: light: 8 k Lux, UV: 1.5 w/m^2.

[8] = Stability upon mechanical force: ball milling; details: XRPD
[9] = Stability upon mechanical force: tableting under different pressures; details: XRPD
Method: An appropriate amount of Form CSII was compressed into tablets under different pressures with suitable tableting die. Crystalline form before and after tableting were tested by XRPD.
An appropriate amount of Form CSIII was compressed into tablets under different pressures with suitable tableting die. Crystalline form before and after tableting were tested by XRPD.

[10] = 25° C./60% RH, long-term condition
[11] = 25° C./60% RH, sealed with desiccants, 9 months
[12] = 40° C./75% RH, accelerated condition
[13] = 60° C./75% RH, stress condition
[14] = 40° C./75% RH, sealed with desiccants, 6 months
[15] = 5 minutes at a vibration speed of 500 rpm
[16] = 25° C./60% RH, sealed with desiccants, 6 months
[17] = 60° C./75% RH, sealed with desiccants, 2 weeks

| Tensile strength [1] [MPa] | Flowability [3] | Mass increase under 70% RH [4] [%] | time for which the drug substance is stable (crystalline state unchanged) [6, 10] | Purity ([6]; 25° C./60% RH, open, 9 months) [%] | Purity [6, 11] [%] | chemical purity during storage [6] | time for which the drug substance is stable (crystalline state unchanged) [6, 12] | time for which the drug substance is stable (crystalline state unchanged) [6, 13] | Purity ([6]; Initial) [%] | Initial purity [7] [%] | Purity [7] [%] | Crystalline form after tableting ([9]; Pressure 5 kN) | Crystalline form after tableting ([9]; Pressure 10 kN) | Crystalline form after tableting ([9]; Pressure 20 kN) | Purity [6, 14] [%] | form change after ball milling [8, 15] | SMILES | crystalline form before and after the formulation process [5] | Solid form [7] | also measured |
| --- | --- | --- | --- | --- | --- | --- | --- | --- | --- | --- | --- | --- | --- | --- | --- | --- | --- | --- | --- | --- |
| 0.552 | Poor | 0.54 | – | – | – | – | – | – | – | – | – | – | – | – | – | – | CN(C)CC1CCOC1(c1ccccc1)c1ccccc1 (centres unmarked) [Form I in the prior art, tetrahydro-N,N-dimethyl-2,2-diphenyl-3-furanmethanamine, reference compound] | – | – | solubility [2]: < 1500 µg/mL |
| 0.707 | Fair (16-20) | – | at least 9 months | 99.91 | 99.92 | above 99% | at least 3 months | at least 2 month | 99.86 | 99.83 | 99.76 | Form CSIII | Form CSIII | Form CSIII | – | – | CN(C)CC1CCOC1(c1ccccc1)c1ccccc1.Cl.O=C(O)CC(O)(CC(=O)O)C(=O)O (centres unmarked) [Form CSIII] | stable before and after the formulation process | remains unchanged; also recorded: Form CSIII | Purity ([6]; 40° C./75% RH, sealed with desiccants, 3 months): 99.91%; Purity ([6]; 60° C./75% RH, sealed with desiccants, 2 months): 99.86%; form change after ball milling ([8]; vibration speed of 300 rpm): no form change |
| 0.705 | – | 0.24 | at least 9 months | 99.90 | 99.95 | above 99.9% | at least 6 months | – | 99.96 | 99.97 | 99.97 | Form CSII | Form CSII | Form CSII | 99.90 | no form change | CN(C)CC1CCOC1(c1ccccc1)c1ccccc1.CN(C)CC1CCOC1(c1ccccc1)c1ccccc1.Cl.Cl.O=C(O)C(O)C(O)C(=O)O (centres unmarked) [Form CSII] | stable before and after the formulation process | remains unchanged; also recorded: Form CSII | Purity ([6]; 60° C./75% RH, sealed with desiccants, 1 month): 99.94% |
| 0.705 | Excellent (≤10) | – | at least 6 months | – | – | above 99.9% | at least 6 months | at least 2 weeks | 99.95 | 99.92 | 99.92 | – | – | – | 99.93 | no form change | CN(C)CC1CCOC1(c1ccccc1)c1ccccc1.CN(C)CC1CCOC1(c1ccccc1)c1ccccc1.Cl.Cl.O=C(O)CC(O)C(=O)O (racemic) [Form CSIV] | – | remains unchanged; also recorded: Form CSIV | Purity [6, 16]: 99.92%; Solid form [6, 16]: Form CSIV; Solid form [6, 14]: Form CSIV; Purity [6, 17]: 99.98%; Solid form [6, 17]: Form CSIV; Solid form ([6]; Initial): Form CSIV |
